ChEMBL document CHEMBL1139135, “Orally active 4-amino-5-diarylurea-furo[2,3-d]pyrimidine derivatives as anti-angiogenic agent inhibiting VEGFR2 and Tie-2” (Bioorg Med Chem Lett, 2007)
Each block holds one compound with its values, some of them ahead of it. Activity calls are given as the source filed them. No cut-off for these calls is given here.

Legend:
Angiopoietin-1 receptor [1] = biological target: T1, Angiopoietin-1 receptor (Homo sapiens, UniProt Q02763); assay: Inhibition of human Tie2 by HTRF method
Target sequence in this assay (Q02763 whole entry): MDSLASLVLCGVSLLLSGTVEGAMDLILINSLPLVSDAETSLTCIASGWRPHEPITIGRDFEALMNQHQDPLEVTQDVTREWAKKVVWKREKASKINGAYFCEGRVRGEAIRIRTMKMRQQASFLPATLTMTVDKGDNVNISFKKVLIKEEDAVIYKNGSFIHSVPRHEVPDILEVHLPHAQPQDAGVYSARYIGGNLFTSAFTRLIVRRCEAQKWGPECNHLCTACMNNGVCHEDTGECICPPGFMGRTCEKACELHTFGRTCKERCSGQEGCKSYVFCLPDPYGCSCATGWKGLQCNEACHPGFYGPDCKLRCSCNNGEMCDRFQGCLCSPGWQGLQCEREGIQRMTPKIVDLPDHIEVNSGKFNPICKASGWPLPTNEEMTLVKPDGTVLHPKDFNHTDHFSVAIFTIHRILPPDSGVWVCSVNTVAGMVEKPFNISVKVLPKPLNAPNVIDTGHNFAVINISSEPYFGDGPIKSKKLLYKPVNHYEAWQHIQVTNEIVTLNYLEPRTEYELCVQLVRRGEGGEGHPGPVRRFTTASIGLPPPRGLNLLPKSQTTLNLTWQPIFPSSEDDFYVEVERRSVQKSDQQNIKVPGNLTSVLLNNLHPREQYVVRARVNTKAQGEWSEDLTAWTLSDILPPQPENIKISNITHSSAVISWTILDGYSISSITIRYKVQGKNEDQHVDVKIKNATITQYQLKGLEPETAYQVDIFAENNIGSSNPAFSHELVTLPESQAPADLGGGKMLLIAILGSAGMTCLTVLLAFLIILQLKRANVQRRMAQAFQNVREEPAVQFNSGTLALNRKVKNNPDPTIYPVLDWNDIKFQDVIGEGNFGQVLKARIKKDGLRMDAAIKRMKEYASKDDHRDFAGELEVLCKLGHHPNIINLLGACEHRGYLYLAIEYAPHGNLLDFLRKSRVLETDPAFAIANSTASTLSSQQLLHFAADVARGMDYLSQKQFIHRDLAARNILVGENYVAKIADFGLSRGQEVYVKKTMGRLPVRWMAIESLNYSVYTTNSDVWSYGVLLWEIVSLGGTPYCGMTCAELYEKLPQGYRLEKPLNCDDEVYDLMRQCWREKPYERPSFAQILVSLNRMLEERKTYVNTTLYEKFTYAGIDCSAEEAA

[2] = biological target: Vascular endothelial growth factor receptor 2 (Homo sapiens, UniProt P35968); assay: Inhibition of human VEGFR2 by HTRF method
Sequence of Vascular endothelial growth factor receptor 2 (P35968 whole entry, looked up): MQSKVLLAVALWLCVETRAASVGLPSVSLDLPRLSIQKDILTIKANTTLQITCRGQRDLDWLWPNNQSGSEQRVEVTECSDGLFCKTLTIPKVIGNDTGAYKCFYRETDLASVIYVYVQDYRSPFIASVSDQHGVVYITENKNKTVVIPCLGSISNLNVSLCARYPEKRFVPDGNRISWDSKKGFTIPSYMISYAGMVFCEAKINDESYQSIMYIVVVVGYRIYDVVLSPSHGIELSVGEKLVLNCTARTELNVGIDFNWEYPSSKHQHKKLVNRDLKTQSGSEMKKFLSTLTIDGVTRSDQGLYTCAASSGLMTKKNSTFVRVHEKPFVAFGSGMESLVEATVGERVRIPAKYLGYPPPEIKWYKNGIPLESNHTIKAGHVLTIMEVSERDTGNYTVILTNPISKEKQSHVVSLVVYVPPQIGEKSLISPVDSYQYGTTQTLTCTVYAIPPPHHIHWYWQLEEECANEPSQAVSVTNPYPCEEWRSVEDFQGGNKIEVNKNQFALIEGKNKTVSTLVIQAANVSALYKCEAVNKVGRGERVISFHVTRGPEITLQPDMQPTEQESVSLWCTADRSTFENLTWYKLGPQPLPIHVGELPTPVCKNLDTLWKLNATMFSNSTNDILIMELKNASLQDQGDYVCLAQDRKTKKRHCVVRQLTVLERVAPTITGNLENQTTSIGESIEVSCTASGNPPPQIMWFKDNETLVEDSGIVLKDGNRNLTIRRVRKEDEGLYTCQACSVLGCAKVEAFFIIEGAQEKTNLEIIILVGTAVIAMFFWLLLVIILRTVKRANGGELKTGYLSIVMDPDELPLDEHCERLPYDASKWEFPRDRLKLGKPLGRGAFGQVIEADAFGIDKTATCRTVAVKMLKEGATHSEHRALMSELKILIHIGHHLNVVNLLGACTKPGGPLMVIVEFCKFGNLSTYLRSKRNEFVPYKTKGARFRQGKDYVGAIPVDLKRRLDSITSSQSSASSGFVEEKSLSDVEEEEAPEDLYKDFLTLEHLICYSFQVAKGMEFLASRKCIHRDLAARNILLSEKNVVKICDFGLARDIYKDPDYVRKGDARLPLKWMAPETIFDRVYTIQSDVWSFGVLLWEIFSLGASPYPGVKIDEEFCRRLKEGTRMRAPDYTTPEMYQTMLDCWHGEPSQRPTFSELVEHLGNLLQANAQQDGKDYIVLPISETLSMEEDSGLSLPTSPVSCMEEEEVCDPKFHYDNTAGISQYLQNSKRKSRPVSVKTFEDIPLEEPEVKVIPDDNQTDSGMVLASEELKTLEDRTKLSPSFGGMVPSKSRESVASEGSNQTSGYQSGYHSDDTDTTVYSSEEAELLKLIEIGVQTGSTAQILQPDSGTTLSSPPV

HT-29 [3] = assay: Antiangiogenic activity against human HT29 cells xenografted in nude CD1 mouse; assay type: functional
[4] = biological target: Epidermal growth factor receptor (Homo sapiens, UniProt P00533); assay: Inhibition of human EGFR
[5] = biological target: Platelet-derived growth factor receptor (Homo sapiens, UniProt P09619+P16234); assay: Inhibition of human PDGFR; assay type: protein-complex assay
HUVEC = assay: Growth inhibition of VEGF-stimulated human HUVEC cells
[6] = Tmax in CD1 mouse at 10.7 mg/kg, po; assay type: ADME, organism-based; parameters: dose 10.7 mg/kg, route oral; conditions: in vivo
HT-29 [7] = assay: Antiangiogenic activity against human HT29 cells xenografted in nude CD1 mouse assessed as decrease in blood vessel density at 30 mg/kg, po; assay type: functional; parameters: scale not given: the % may be the effect or the level left
[8] = AUC (0 to t) in CD1 mouse at 10.7 mg/kg, po; assay type: ADME, organism-based; parameters: dose 10.7 mg/kg, route oral; conditions: plasma
HT-29 [9] = assay: Antiangiogenic activity against human HT29 cells xenografted in nude CD1 mouse assessed as decrease in blood vessel density at 3 mg/kg, po; assay type: functional; parameters: scale not given: the % may be the effect or the level left
HT-29 [10] = assay: Cytotoxicity against human HT29 cells after 3 days; conditions: HT-29, 72 h
[11] = biological target: Macrophage colony-stimulating factor 1 receptor (Homo sapiens, UniProt P07333); assay: Inhibition of human cFMS
Sequence of Macrophage colony-stimulating factor 1 receptor (P07333 whole entry): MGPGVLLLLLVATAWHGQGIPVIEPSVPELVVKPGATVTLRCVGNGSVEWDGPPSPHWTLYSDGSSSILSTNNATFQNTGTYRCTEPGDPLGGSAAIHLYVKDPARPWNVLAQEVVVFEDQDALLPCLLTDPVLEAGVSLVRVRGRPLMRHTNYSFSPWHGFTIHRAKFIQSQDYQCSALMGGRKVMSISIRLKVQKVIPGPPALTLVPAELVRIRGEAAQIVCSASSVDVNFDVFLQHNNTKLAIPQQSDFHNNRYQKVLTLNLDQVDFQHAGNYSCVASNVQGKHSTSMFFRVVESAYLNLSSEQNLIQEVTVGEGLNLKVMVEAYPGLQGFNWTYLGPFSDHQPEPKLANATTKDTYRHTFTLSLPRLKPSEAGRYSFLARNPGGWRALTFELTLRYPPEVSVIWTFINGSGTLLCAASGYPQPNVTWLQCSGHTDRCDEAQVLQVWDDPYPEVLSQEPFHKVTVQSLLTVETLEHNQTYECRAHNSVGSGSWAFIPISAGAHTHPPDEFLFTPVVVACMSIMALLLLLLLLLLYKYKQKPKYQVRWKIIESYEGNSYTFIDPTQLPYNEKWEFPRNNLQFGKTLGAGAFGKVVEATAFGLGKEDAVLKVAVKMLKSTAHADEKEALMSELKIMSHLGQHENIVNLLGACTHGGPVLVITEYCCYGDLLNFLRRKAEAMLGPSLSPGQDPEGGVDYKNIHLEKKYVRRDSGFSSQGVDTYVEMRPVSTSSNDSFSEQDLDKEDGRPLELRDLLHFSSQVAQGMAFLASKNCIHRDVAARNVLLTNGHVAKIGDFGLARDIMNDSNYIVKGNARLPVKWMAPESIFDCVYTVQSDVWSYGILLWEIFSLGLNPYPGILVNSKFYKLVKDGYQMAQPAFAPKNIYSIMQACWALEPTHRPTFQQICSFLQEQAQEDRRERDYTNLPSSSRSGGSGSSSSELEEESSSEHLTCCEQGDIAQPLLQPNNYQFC

HT-29 [12] = assay: Antiangiogenic activity against human HT29 cells xenografted in nude CD1 mouse assessed as decrease in blood vessel density at 10 mg/kg, po; assay type: functional; parameters: scale not given: the % may be the effect or the level left
[13] = Cmax in CD1 mouse at 10.7 mg/kg, po; assay type: ADME, organism-based; parameters: dose 10.7 mg/kg, route oral; conditions: in vivo
[14] = biological target: Vascular endothelial growth factor receptor 3 (Homo sapiens, UniProt P35916); assay: Inhibition of human VGFR3
HFF = assay: Cytotoxicity against human HFF cells after 3 days; conditions: 72 h
[15] = biological target: Glycogen synthase kinase-3 (Homo sapiens, UniProt P49840+P49841); assay: Inhibition of human GSK3; assay type: protein assay
[16] = biological target: RAC-gamma serine/threonine-protein kinase (Homo sapiens, UniProt Q9Y243); assay: Inhibition of human Akt3
Sequence of RAC-gamma serine/threonine-protein kinase (Q9Y243 whole entry): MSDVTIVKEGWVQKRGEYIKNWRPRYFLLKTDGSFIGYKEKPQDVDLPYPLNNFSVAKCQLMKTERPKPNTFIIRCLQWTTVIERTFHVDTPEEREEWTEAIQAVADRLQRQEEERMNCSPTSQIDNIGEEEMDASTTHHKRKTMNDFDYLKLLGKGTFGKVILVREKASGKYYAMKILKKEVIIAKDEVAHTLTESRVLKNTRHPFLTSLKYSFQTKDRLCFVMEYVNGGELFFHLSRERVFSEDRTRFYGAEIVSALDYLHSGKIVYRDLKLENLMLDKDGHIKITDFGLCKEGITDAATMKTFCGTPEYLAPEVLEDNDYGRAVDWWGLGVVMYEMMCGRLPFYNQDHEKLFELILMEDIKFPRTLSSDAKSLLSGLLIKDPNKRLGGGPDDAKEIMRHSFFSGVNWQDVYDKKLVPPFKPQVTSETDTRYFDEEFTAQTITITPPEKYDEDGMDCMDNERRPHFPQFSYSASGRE

[17] = biological target: Proto-oncogene tyrosine-protein kinase Src (Homo sapiens, UniProt P12931); assay: Inhibition of human SRC
Angiopoietin-1 receptor [18] = biological target: T1, Angiopoietin-1 receptor; assay: Inhibition of c-fms/Tie2 chimeric receptor transfected in 3T3 cell assessed as autophosphorylation activity; assay type: cell-based
Target sequence in this assay (Q02763 23-1124 limits assumed): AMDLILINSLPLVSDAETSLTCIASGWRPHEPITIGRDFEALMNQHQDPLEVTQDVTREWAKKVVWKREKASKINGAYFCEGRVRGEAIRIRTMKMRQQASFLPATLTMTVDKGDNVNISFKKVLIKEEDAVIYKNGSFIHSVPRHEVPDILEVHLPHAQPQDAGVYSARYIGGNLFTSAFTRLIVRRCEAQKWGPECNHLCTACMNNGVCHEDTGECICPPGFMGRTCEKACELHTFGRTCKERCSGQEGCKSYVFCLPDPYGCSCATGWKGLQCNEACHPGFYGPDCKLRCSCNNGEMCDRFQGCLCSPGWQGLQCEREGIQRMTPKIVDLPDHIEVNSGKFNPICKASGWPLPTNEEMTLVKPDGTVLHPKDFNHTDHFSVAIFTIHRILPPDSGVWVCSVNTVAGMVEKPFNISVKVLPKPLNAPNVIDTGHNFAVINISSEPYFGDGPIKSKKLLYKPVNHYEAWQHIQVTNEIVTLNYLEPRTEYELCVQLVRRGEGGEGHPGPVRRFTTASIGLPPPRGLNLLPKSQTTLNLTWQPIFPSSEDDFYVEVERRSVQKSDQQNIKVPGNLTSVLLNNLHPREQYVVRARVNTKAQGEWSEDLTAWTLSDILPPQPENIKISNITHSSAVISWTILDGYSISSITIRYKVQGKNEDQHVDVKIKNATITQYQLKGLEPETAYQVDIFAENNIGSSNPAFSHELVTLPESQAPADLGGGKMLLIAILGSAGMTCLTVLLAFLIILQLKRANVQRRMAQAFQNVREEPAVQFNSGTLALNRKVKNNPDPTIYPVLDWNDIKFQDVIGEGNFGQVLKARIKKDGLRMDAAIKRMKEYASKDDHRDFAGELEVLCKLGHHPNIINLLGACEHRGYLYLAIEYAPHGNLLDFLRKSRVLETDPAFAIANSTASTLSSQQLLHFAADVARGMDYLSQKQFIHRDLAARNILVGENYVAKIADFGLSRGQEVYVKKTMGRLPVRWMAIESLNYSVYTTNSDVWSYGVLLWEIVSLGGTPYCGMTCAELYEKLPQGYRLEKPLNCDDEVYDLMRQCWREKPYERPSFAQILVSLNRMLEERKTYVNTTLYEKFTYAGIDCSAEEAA

[19] = biological target: Vascular endothelial growth factor receptor 1 (Homo sapiens, UniProt P17948); assay: Inhibition of human VEGFR1
HT-29 [20] = assay: Inhibition of tumor growth in human HT29 cells xenografted in orally dosed nude CD1 mouse; assay type: functional, organism-based
[21] = biological target: Cyclin-dependent kinase 2 (Homo sapiens, UniProt P24941); assay: Inhibition of human CDK2

SMILES: Nc1ncnc2occ(-c3ccc(NC(=O)Nc4cc(C(F)(F)F)cc(C(F)(F)F)c4)cc3)c12 [GW795486X]
IC50 (Angiopoietin-1 receptor [1]): 380 nM

SMILES: Nc1ncnc2occ(-c3ccc(NC(=O)Nc4cccc(Oc5ccccc5)c4)cc3)c12
IC50 [2]: 1740 nM
IC50 (Angiopoietin-1 receptor [1]): 407 nM

SMILES: Nc1ncnc2occ(-c3ccc(NC(=O)Nc4cccc5ccccc45)cc3)c12
IC50 [2]: 447 nM
IC50 (Angiopoietin-1 receptor [1]): 182 nM

SMILES: COc1ccc(F)c(NC(=O)Nc2ccc(-c3coc4ncnc(N)c34)cc2)c1
IC50 [2]: 331 nM
IC50 (Angiopoietin-1 receptor [1]): 224 nM

SMILES: Nc1ncnc2occ(-c3ccc(NC(=O)Nc4cc(C(F)(F)F)ccc4Cl)cc3)c12
IC50 [2]: 186 nM
IC50 (Angiopoietin-1 receptor [1]): 204 nM

The next compounds have a lower IC50 (Angiopoietin-1 receptor [1]) than those just listed; values first:

IC50 [2]: 24 nM
IC50 (Angiopoietin-1 receptor [1]): 81.3 nM
SMILES: Nc1ncnc2occ(-c3ccc(NC(=O)Nc4ccc5ccccc5c4)cc3)c12

IC50 [4]: 10000 nM
IC50 [5]: 27.5 nM
Tmax [6]: 2 h
AUC(0-t) [8]: 20000 ng·h/mL
IC50 [11]: 38.9 nM
IC50 [2]: 7.76 nM
Cmax [13]: 2720 ng/mL
IC50 [14]: 7.59 nM
Log IC50 [15]: -5.66
IC50 [16]: 17400 nM
IC50 [17]: 537 nM
IC50 (Angiopoietin-1 receptor [18]): 18.3 nM
IC50 [19]: 8.51 nM
IC50 (Angiopoietin-1 receptor [1]): 13.5 nM
IC50 [21]: 17800 nM
SMILES: Nc1ncnc2occ(-c3ccc(NC(=O)Nc4cc(C(F)(F)F)ccc4F)cc3)c12 [GW770249X]
Activity (HT-29 [3]): Active
IC50 (HUVEC): 2.6 nM
Activity (HT-29 [7]): 62.9%
Activity (HT-29 [9]): 24.3%
IC50 (HT-29 [10]): 5080 nM
Activity (HT-29 [12]): 35.6%
IC50 (HFF): 2510 nM
Activity (HT-29 [20]): Dose-dependent effect

IC50 [2]: 7.08 nM
IC50 (Angiopoietin-1 receptor [1]): 10.2 nM
SMILES: Nc1ncnc2occ(-c3ccc(NC(=O)Nc4cccc(C(F)(F)F)c4)cc3)c12 [GW795493X]
